# Measured values as given in patent publication US20260356803A1, “Nicotinamide derivatives” (Board of Regents, The University of Texas System, priority 2024, published 2026).
# Where two headings read alike, the source gives them in different places.
# Tests used:
# [1] = system: human MPNST cell line S462; experiment: S462 cell viability (CellTiter-Glo, 72 h); assay type: cell-based; details: for toxicity to S462 / rescue by nicotinamide: 10% FBS Nam-free DMEM; for rescue by nicotinamide: comparison of vacor, 3-AP, tiazofurin and 9
# Source text: This similarity, in addition to the scaffold's particular sensitivity to modifications around the pyridinyl ring led us to hypothesize that the activity of compounds 1 and 9 may depend on the concentration of Nam in the media. To test this hypothesis, we analyzed the activity of both compounds in media supplemented with increasing concentrations of Nam. […] Given that Nam inhibited compound activity, we considered Nam concentrations in basal culture conditions (DMEM supplemented with 10% fetal bovine serum or FBS) as compared to physiological levels. Nam levels in human serum are estimated to be in the 4 μM range.^5 In contrast, DMEM alone contains […] of Nam and the concentration in 10% FBS is expected to range between 0.574-1.56 μM.^6 To more closely reflect physiologic levels of Nam, we evaluated the activity of these compounds in cells grown in DMEM lacking Nam (Nam-free DMEM), so that the only exogenous Nam derives from 10% FBS. […] These observations indicate that the potency of these compounds is in the nanomolar range when tested in the presence of physiological levels of Nam.
# We thus re-assessed the structure activity relationship of compound 21 analogs in Nam-free DMEM supplemented with or without 100 μM Nam (see appendix below: Synthesis, characterization and activity of micromolar and nanomolar active nicotinamide derivatives). […] Particularly notable, even in Nam-depleted conditions, all active analogs retained the same 3-pyridinyl ring as Nam, reinforcing the relationship between structural resemblance to Nam and compound efficacy.
# In 96-well assay plates (Corning #2903), 2,000 cells were plated per well in 100 μL of medium and allowed to adhere overnight. The next day, compounds or Nam suspended in DMSO were dispensed to the assayed wells using a D300e Digital Dispenser (Tecan). All wells were normalized to 0.5% DMSO. 72 hours after incubation at 37 °C in 5% CO2, cell viability was assayed using an ATP-based luminescent viability assay, CellTiter-Glo (Promega #G8462). CellTiter-Glo substrate was mixed 1:1 with phosphate-buffered saline (PBS) supplemented with 1% Triton X-100, and 40 μL of this mixture was added to the assay wells. After the plates were shaken on a microplate shaker for 10 minutes at room temperature, luminescence was recorded using a Synergy 2 Microplate Reader or Cytation 5 plate reader (BioTek). In Prism 9 software (GraphPad), ten-point dose response curves were plotted with baseline-correction to the vehicle control well, and IC50 values were calculated by curve fitting using asymmetric (five parameter), least squares fit.
# [2] = system: IMPDH; experiment: Guanosine co-titration rescue; assay type: cell-based; details: guanosine co-titrated
# Source text: (§1) Given that vacor, 3-AP, and compound 21 are all metabolized to toxic, NAD-like derivatives through NAMPT and NMNAT, we hypothesized that their anti-cancer activity may also depend on SARM1. To test this, we compared the toxic effects of vacor, 3-AP, and 9 in either wild type cells or cells in which we used CRISPR to silence SARM1. […] These observations highlight that even though these different scaffolds are toxified through the same mechanism, the resulting metabolites may have different activities. We next co-titrated guanosine, which is known to rescue tiazofurin by bypassing IMPDH in guanylate synthesis, with each of the above small molecules. […] To test this hypothesis, we set up in vitro reactions with different combinations of 9, NAMPT and NMNAT. After incubation, metabolites were extracted, reconstituted in aqueous solution and then co-incubated with an established IMPDH2 enzyme assay.
# [3] = system: SARM1; experiment: Cytotoxicity in SARM1-knockout versus wild type cells; assay type: cell-based; details: SARM1-knockout vs wild type
# Source text: as §1
# [4] = system: iHCT116 cells; experiment: Forward genetics resistance selection (IAA-inducible mutagenesis); assay type: cell-based
# Source text: Second, we screened for resistance to 9 in iHCT116 cells, a system that uses inducible mutagenesis and forward genetics to find compound-resistant mutations and thus can reveal both loss of function and gain of function alleles that suppress activity. The iHCT116 system is a barcoded cell line in which we temporally control mutagenesis by the addition of indole acetic acid (IAA) mediated degradation of the mismatch repair protein MLH1.^12 MLN4924 is a small molecule toxin that we use as a positive control to verify that IAA treatment leads to increased mutations. By degrading MLH1 and increasing the overall mutation rate, IAA treatment increases the frequency of UBA3 mutations, leading to a higher rate of MLN4924 resistance. […] Having previously established a relationship between either NMNAT1 levels or NAMPT activity and compound resistance, we analyzed the levels of both enzymes in multiple resistant clones that harbored unique barcode sequences. […] To test whether reduced NMNAT1 levels in these clones contributed to resistance, we ectopically expressed NMNAT1 in either the parental cells or a representative resistant clone with low NMNAT1 expression.
# [5] = system: NMNAT1 or alcohol dehydrogenase; experiment: Counter screen with NMN in place of NAM; assay type: biochemical; details: role: inhibitor; 50 μM NMN substituted for NAM
# Description: NAMPT activity was measured using a coupled-enzyme assay previously described [Revollo, 2014]. Briefly, reactions consisting of 50 mM Tris pH 8, 0.4 mM PRPP, 2.5 mM ATP, 12 mM MgCl2, 0.02% BSA, 1 μM NAMPT, 77 nM NMNAT1, 10 mM semicarbazide, 30 μg/ml alcohol dehydrogenase were set up in a 384-well plate (50 μl/well). […] The reactions were started by addition of 50 μM NAM. Fluorescence due to NADH formation by alcohol dehydrogenase was measured in a BioTek Cytation 5 plate reader (Agilent, USA) set up for excitation at λ=340 nm and detection of emission at λ=460 nm. To counter screen for NMNAT1 or alcohol dehydrogenase inhibition, the assay was set up above but substituting 50 μM NMN (substrate for NMNAT1) for NAM. No inhibition of was observed under these conditions.
# [6] = [nicotinamide] 0 μM, Nam-free DMEM, read-out: IC50 (μM), [nicotinamide] 0 μM
# [7] = [nicotinamide] 33 μM, read-out: IC50 (μM), [nicotinamide] 33 μM
# [8] = [nicotinamide] 100 μM, read-out: IC50 (μM), [nicotinamide] 100 μM
# [9] = S462, commercial DMEM, highest dose tested 50 μM, read-out: IC50
SMILES,"IC50 [1, 6]","IC50 [1, 7]","IC50 [1, 8]",also measured
O=C(Nc1cccnc1)c1ccco1,0.022 µM,> 50 µM,> 50 µM,–
O=C(Nc1cccnc1)c1ccc(Cl)cc1,0.921 µM,> 50 µM,> 50 µM,–
Cc1ccc(C(=O)Nc2cccnc2)s1,0.184 µM,> 50 µM,> 50 µM,–
O=C(Nc1cccnc1)c1ccc(C(F)(F)F)cc1,0.771 µM,> 50 µM,> 50 µM,–
O=C(Nc1cccnc1)c1ccc[nH]1,0.08 µM,> 50 µM,> 50 µM,–
N#Cc1ccc(NC(=O)c2cccs2)cn1,2.78 µM,> 50 µM,> 50 µM,–
O=C(Nc1cnc(Cl)c(Cl)c1)c1cccs1,8.76 µM,> 50 µM,42.4 µM,–
Cc1ccsc1C(=O)Nc1cccnc1,1.08 µM,> 50 µM,> 50 µM,–
"NC(=O)c1csc([C@@H]2O[C@H](CO)[C@@H](O)[C@H]2O)n1 [tiazofurin, reference compound]",–,–,–,toxicity to S462 [1]: toxic to S462; rescue by nicotinamide [1]: all compounds except tiazofurin were rescued by nicotinamide; guanosine rescue of toxicity [2]: guanosine rescue
Cc1sc(NC(=O)c2cccnc2)c(C#N)c1C,–,–,> 50 µM,–
Cc1ncsc1C(=O)Nc1cccnc1,–,> 50 µM,> 50 µM,–
O=C(Nc1cccnc1)c1ccoc1,0.948 µM,> 50 µM,> 50 µM,–
"O=C(Nc1ccccc1)c1cccs1 [Compound 2, N-Phenylthiophene-2-carboxamide]",–,–,–,"IC50 [1, 9]: > 50 µM"
O=C(Nc1cc(-c2ccccc2)cs1)c1cccnc1,2.46 µM,–,39.6 µM,–
Cc1cc(C#N)c(NC(=O)c2cccnc2)s1,–,–,> 50 µM,–
O=C(Nc1ccc(Br)nc1)c1cccs1,8.5 µM,> 50 µM,> 50 µM,–
N#Cc1c(NC(=O)c2cccnc2)sc2c1CCC2,5.97 µM,–,6.1 µM,–
Cc1ccccc1C(=O)Nc1cccnc1,14.7 µM,> 50 µM,> 50 µM,–
O=C(Nc1cccnc1)c1ncc[nH]1,22.4 µM,> 50 µM,> 50 µM,–
"CC(=O)c1cccnc1 [Compound 3-AP, 3-acetylpyridine, reference compound]",–,–,–,toxicity to S462 [1]: toxic to S462; rescue by nicotinamide [1]: rescued by nicotinamide; sensitivity of SARM1-knockout cells [3]: equally sensitive; guanosine rescue of toxicity [2]: no rescue
Cc1csc(C(=O)Nc2cccnc2)c1,0.302 µM,> 50 µM,> 50 µM,–
CCOC(=O)c1ccc(NC(=O)c2cccnc2)s1,0.23 µM,–,> 50 µM,–
"O=C(Nc1ccncc1)c1cccs1 [Compound 4, N-(Pyridin-4-yl)thiophene-2-carboxamide]",–,–,–,"IC50 [1, 9]: > 50 µM"
CCOC(=O)c1ccsc1NC(=O)c1cccnc1,–,> 50 µM,> 50 µM,–
"NS(=O)(=O)OC[C@@H]1C[C@@H](n2ccc3c(N[C@H]4CCc5ccccc54)ncnc32)C[C@@H]1O [MLN4924, reference compound]",–,–,–,resistant clones ([4]; IAA treated (Mut-on)): 33 clones; resistant clones ([4]; vehicle (Mut-off)): one

SMILES,"IC50 [1, 6]","IC50 [1, 7]","IC50 [1, 8]",also measured
Cc1cccc(C(=O)Nc2cccnc2)c1,35.7 µM,> 50 µM,> 50 µM,–
O=C(Nc1cccnc1)c1ccccc1,0.064 µM,16.8 µM,> 50 µM,–
N#Cc1cncc(NC(=O)c2cccs2)c1,–,> 50 µM,> 50 µM,–
O=C(Nc1cccnc1)c1ncco1,19.5 µM,> 50 µM,> 50 µM,–
O=C(Nc1ccon1)c1cccnc1,2.73 µM,> 50 µM,> 50 µM,–
O=C(Nc1nc2cccnc2s1)c1cccnc1,23.9 µM,> 50 µM,> 50 µM,–
"O=C(NCc1cccnc1)Nc1ccc([N+](=O)[O-])cc1 [vacor, reference compound]",–,–,–,toxicity to S462 [1]: toxic to S462; rescue by nicotinamide [1]: rescued by nicotinamide; resistance of SARM1-knockout cells [3]: 3 fold; guanosine rescue of toxicity [2]: no rescue
O=C(Nc1cccnc1)c1ccc(Br)s1,0.234 µM,15.6 µM,> 50 µM,–
"O=C(/C=C/c1cccnc1)NCCCCC1CCN(C(=O)c2ccccc2)CC1 [FK866, reference compound]",–,–,–,inhibition in counter screen [5]: No inhibition
O=C(Nc1cccs1)c1cccnc1 [drawing 72],0.006 µM,1.2 µM,> 50 µM,–
O=C(Nc1cccnc1)c1nccs1,1.88 µM,> 50 µM,> 50 µM,–
"O=C(Nc1ccccn1)c1cccs1 [Compound 3, N-(Pyridin-2-yl)thiophene-2-carboxamide]",–,–,–,"IC50 [1, 9]: > 50 µM"
N#Cc1c(NC(=O)c2cccnc2)sc2c1CCCC2,4.74 µM,–,4.72 µM,–
O=C(Nc1cccnc1)c1cc2c(s1)CCCC2,0.763 µM,> 50 µM,> 50 µM,–
N#Cc1ccc(C(=O)Nc2cccnc2)s1,0.075 µM,14.2 µM,> 50 µM,–
O=C(Nc1cccnc1)c1cccnn1,18 µM,> 50 µM,> 50 µM,–
O=C(Nc1cncc(F)c1)c1cccs1,–,> 50 µM,> 50 µM,–
O=C(Nc1cccnc1)c1ccccn1,0.992 µM,> 50 µM,> 50 µM,–
O=C(Nc1cccnc1)c1cc2ccccc2s1,0.249 µM,21.4 µM,> 50 µM,–
O=C(Nc1nc2ccccc2s1)c1cccnc1 [drawing 111],36.2 µM,> 50 µM,> 50 µM,–
COc1ccc(C(=O)Nc2cccnc2)cc1,0.686 µM,> 50 µM,> 50 µM,–
O=C(Nc1ccccc1)c1cccnc1,0.024 µM,13.1 µM,> 50 µM,–
COc1cccc(C(=O)Nc2cccnc2)c1,2.36 µM,> 50 µM,> 50 µM,–
O=C(Nc1nc2ccccc2s1)c1cccnc1 [drawing 105],0.623 µM,–,> 50 µM,–
